Assay results published in PMC11923213, “Structural characterization reveals substrate recognition by the taurine transporter TauT” (Cell Discovery, 2025).
Positions count from the first letter of the chain named.

Tests used:
Type in all cases: cell-based
[1] = target: T1, TauT (taurine transporter, SLC6A6) (Homo sapiens, UniProt P31641, E406T); test: Xenopus laevis oocytes, taurine-induced inward current
T1 construct: wild-type TauT expressed in Xenopus laevis oocytes for electrophysiology; cryo-EM sample details only in supplement
T1 sequence (P31641 1-620 E406T): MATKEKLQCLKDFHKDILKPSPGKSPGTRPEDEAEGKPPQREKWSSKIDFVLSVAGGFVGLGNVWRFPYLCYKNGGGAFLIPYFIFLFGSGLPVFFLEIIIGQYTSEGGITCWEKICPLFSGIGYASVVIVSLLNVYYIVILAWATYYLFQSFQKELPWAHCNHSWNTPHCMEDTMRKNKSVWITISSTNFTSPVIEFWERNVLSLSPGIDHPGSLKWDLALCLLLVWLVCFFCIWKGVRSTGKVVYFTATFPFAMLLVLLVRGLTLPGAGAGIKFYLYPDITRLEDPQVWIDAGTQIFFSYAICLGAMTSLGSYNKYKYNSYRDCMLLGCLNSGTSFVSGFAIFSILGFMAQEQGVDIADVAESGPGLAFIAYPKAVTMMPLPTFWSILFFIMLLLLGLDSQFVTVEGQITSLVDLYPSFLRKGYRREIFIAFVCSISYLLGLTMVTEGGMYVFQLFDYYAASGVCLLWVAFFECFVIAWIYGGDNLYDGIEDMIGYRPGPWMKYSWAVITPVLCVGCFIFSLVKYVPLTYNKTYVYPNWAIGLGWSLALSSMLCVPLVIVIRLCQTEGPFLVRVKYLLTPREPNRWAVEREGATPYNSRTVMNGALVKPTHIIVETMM

[2] = target: T2, TauT (taurine transporter, SLC6A6; TauT^WT) (Homo sapiens, UniProt P31641); test: two-electrode voltage clamp in Xenopus laevis oocytes, taurine-induced inward current
T2 construct: wild-type TauT expressed in Xenopus laevis oocytes for electrophysiology; cryo-EM sample details only in supplement
T2 sequence (P31641 1-620): T1 sequence (P31641 1-620 E406T) with T406E

[3] = target: T2, TauT (taurine transporter, SLC6A6; TauT^WT); test: Xenopus laevis oocytes, β-alanine-induced inward current

Row | EC50 [1] | EC50 [2] | EC50 [3] | SMILES
1 | 50.3 µM | 2.9 µM |  | NCCS(=O)(=O)O [taurine]
2 |  |  | 5.6 µM | NCCC(=O)O [β-alanine]
